Patent US10398751B2, “Pharmaceutical compositions of water soluble peptides with poor solubility in isotonic conditions and methods for their use” (STRONGBRIDGE IRELAND LIMITED, priority 2016, dated 2019)
Counter-ions that a name gives are not always drawn. Like-named read-outs stand apart in the source and are kept apart here.

Experiment: Solubility screening of veldoreotide acetate (10 mg, incremental volumes of medium, USP definition)
Format: physicochemical
Excerpt: The solubility of veldoreotide acetate in aqueous media was screened by the following method. A fixed amount of 10 milligrams of the peptide was weighed and dissolved at ambient temperature by increased (incremental) volumes of the tested medium until a complete solubility was observed, i.e, clear/transparent solution and absence of any precipitates (the solubility endpoint values were defined according to USP guidance). Following the results of the screening studies, several media were selected for verification studies based on quantitative assessment of the peptide concentration by HPLC (maximal solubility). The results of the screening study are depicted in Table 1 while the results of the verification studies are included in Table 2.

Q: What does the source list for C[C@@H](O)[C@@H]1NC(=O)[C@H](CCCCN)NC(=O)[C@@H](Cc2c[nH]c3ccccc23)NC(=O)[C@H](Cc2c[nH]c3ccccc23)NC(=O)[C@H](Cc2ccccc2)NC(=O)CCCNC(=O)CCCN(CC(N)=O)C(=O)[C@H](Cc2ccccc2)NC1=O [Veldoreotide Acetate, Cyclo(-γ-aminobutyryl-L-phenylalanyl-L-tryptophanyl-D-tryptophanyl-L-lysyl-L-threonyl-L-phenylalanyl-N-carbamoylmethyl-γ-aminobutyryl), acetate salt]?
A: Results USP Definition (10 mg in 0.1% TFA): Freely soluble; Results USP Definition (10 mg in 0.1N HCL, acetate salt): Soluble; Results USP Definition (10 mg in 0.1N HCL, listed as veldoreotide acetate, acetate salt): soluble; Results USP Definition (10 mg in 0.9N HCL, acetate salt): Insoluble; Results USP Definition (10 mg in 0.9N HCL, listed as veldoreotide acetate, acetate salt): insoluble; Results USP Definition (10 mg in 2% Propylene glycol in olive oil (or cottonseed oil)): Sparingly; Results USP Definition (10 mg in 10% EtOH (95%) in olive oil (or cottonseed oil)): Sparingly; Results USP Definition (10 mg in Acetate saline 100 mM, Mannitol 250 mM (pH 4.3)): Slightly soluble; Results USP Definition (10 mg in Acetic acid 1% (glacial)): Freely soluble; Results USP Definition (10 mg in Acetone (USP)): Freely soluble; Results USP Definition (10 mg in Caprylic acid): Soluble; Results USP Definition (10 mg in DDW (Double distilled water)): Freely soluble; Results USP Definition (10 mg in Dextrose 5% (USP)): Freely soluble; Results USP Definition (10 mg in Ethanol (USP)): Freely soluble; Results USP Definition (10 mg in Glycerol): Soluble; Results USP Definition (10 mg in Lactic acid 37 mM, Mannitol 250 mM (pH 4.3)): Freely soluble; Results USP Definition (10 mg in Oleic acid): Very slightly; Results USP Definition (10 mg in PBS pH 7.2): Very slightly; Results USP Definition (10 mg in Propylene glycol): Freely soluble; Results USP Definition (10 mg in Refined vegetable oils, Olive, Cotton, Coconut, Canola): Insoluble; Results USP Definition (10 mg in Saline (USP) (0.9% NaCl) pH 4.5): Very slightly; Results USP Definition (10 mg in WFI-USP (water for injection)): Soluble; solubility (0.1% TFA, 10 mg in 0.1% TFA, read-out: 0.01 ml Very soluble (1 g/ml)): < 1000 mg/mL; solubility (0.1% TFA, 10 mg in 0.1% TFA, read-out: 0.5 ml Soluble (0.02 g/ml; 20 mg/ml)): > 20 mg/mL; solubility (0.1% TFA, 10 mg in 0.1% TFA, read-out: 1 ml Sparingly soluble (0.01 g/ml; 10 mg/ml)): > 10 mg/mL; solubility (0.1% TFA, 0.1 ml Freely soluble (0.1 g/ml), 10 mg in 0.1% TFA): > 100 mg/mL; solubility (0.1% TFA, 10 ml Slightly soluble (0.001 g/ml; 1 mg/ml), 10 mg in 0.1% TFA): > 1 mg/mL; solubility (0.1N HCl, 10 mg in 0.1N HCL, read-out: 0.01 ml Very soluble (1 g/ml)): < 1000 mg/mL; solubility (0.1N HCl, 10 mg in 0.1N HCL, read-out: 0.5 ml Soluble (0.02 g/ml; 20 mg/ml)): > 20 mg/mL; solubility (0.1N HCl, 10 mg in 0.1N HCL, read-out: 1 ml Sparingly soluble (0.01 g/ml; 10 mg/ml)): > 10 mg/mL; solubility (0.1N HCl, 0.1 ml Freely soluble (0.1 g/ml), 10 mg in 0.1N HCL): > 100 mg/mL; solubility (0.1N HCl, 10 ml Slightly soluble (0.001 g/ml; 1 mg/ml), 10 mg in 0.1N HCL): > 1 mg/mL; solubility (0.9N HCl, 10 mg in 0.9N HCL, read-out: 0.01 ml Very soluble (1 g/ml)): < 1000 mg/mL; solubility (0.9N HCl, 10 mg in 0.9N HCL, read-out: 0.5 ml Soluble (0.02 g/ml; 20 mg/ml)): < 20 mg/mL; solubility (0.9N HCl, 10 mg in 0.9N HCL, read-out: 1 ml Sparingly soluble (0.01 g/ml; 10 mg/ml)): < 10 mg/mL; solubility (0.9N HCl, 0.1 ml Freely soluble (0.1 g/ml), 10 mg in 0.9N HCL): < 100 mg/mL; solubility (0.9N HCl, 10 ml Slightly soluble (0.001 g/ml; 1 mg/ml), 10 mg in 0.9N HCL): < 1 mg/mL; solubility (2% propylene glycol in olive oil (or cottonseed oil), 10 mg in 2% Propylene glycol in olive oil (or cottonseed oil), read-out: 0.01 ml Very soluble (1 g/ml)): < 1000 mg/mL; solubility (2% propylene glycol in olive oil (or cottonseed oil), 10 mg in 2% Propylene glycol in olive oil (or cottonseed oil), read-out: 0.5 ml Soluble (0.02 g/ml; 20 mg/ml)): < 20 mg/mL; solubility (2% propylene glycol in olive oil (or cottonseed oil), 10 mg in 2% Propylene glycol in olive oil (or cottonseed oil), read-out: 1 ml Sparingly soluble (0.01 g/ml; 10 mg/ml)): > 10 mg/mL; solubility (2% propylene glycol in olive oil (or cottonseed oil), 0.1 ml Freely soluble (0.1 g/ml), 10 mg in 2% Propylene glycol in olive oil (or cottonseed oil)): < 100 mg/mL; solubility (2% propylene glycol in olive oil (or cottonseed oil), 10 ml Slightly soluble (0.001 g/ml; 1 mg/ml), 10 mg in 2% Propylene glycol in olive oil (or cottonseed oil)): > 1 mg/mL; solubility (10% EtOH (95%) in olive oil (or cottonseed oil), 10 mg in 10% EtOH (95%) in olive oil (or cottonseed oil), read-out: 0.01 ml Very soluble (1 g/ml)): < 1000 mg/mL; solubility (10% EtOH (95%) in olive oil (or cottonseed oil), 10 mg in 10% EtOH (95%) in olive oil (or cottonseed oil), read-out: 0.5 ml Soluble (0.02 g/ml; 20 mg/ml)): < 20 mg/mL; solubility (10% EtOH (95%) in olive oil (or cottonseed oil), 10 mg in 10% EtOH (95%) in olive oil (or cottonseed oil), read-out: 1 ml Sparingly soluble (0.01 g/ml; 10 mg/ml)): > 10 mg/mL; solubility (10% EtOH (95%) in olive oil (or cottonseed oil), 0.1 ml Freely soluble (0.1 g/ml), 10 mg in 10% EtOH (95%) in olive oil (or cottonseed oil)): < 100 mg/mL; solubility (10% EtOH (95%) in olive oil (or cottonseed oil), 10 ml Slightly soluble (0.001 g/ml; 1 mg/ml), 10 mg in 10% EtOH (95%) in olive oil (or cottonseed oil)): > 1 mg/mL; solubility (Acetate saline 100 mM, Mannitol 250 mM, pH 4.3, 10 mg in Acetate saline 100 mM, Mannitol 250 mM (pH 4.3), read-out: 0.01 ml Very soluble (1 g/ml)): < 1000 mg/mL; solubility (Acetate saline 100 mM, Mannitol 250 mM, pH 4.3, 10 mg in Acetate saline 100 mM, Mannitol 250 mM (pH 4.3), read-out: 0.5 ml Soluble (0.02 g/ml; 20 mg/ml)): < 20 mg/mL; solubility (Acetate saline 100 mM, Mannitol 250 mM, pH 4.3, 10 mg in Acetate saline 100 mM, Mannitol 250 mM (pH 4.3), read-out: 1 ml Sparingly soluble (0.01 g/ml; 10 mg/ml)): < 10 mg/mL; solubility (Acetate saline 100 mM, Mannitol 250 mM, pH 4.3, 0.1 ml Freely soluble (0.1 g/ml), 10 mg in Acetate saline 100 mM, Mannitol 250 mM (pH 4.3)): < 100 mg/mL; solubility (Acetate saline 100 mM, Mannitol 250 mM, pH 4.3, 10 ml Slightly soluble (0.001 g/ml; 1 mg/ml), 10 mg in Acetate saline 100 mM, Mannitol 250 mM (pH 4.3)): > 1 mg/mL; solubility (Acetate saline 100 mM, Mannitol 250 mM, pH 4.3, Acetate saline 100 mM, Mannitol 250 mM (pH 4.3), read-out: Results USP Definition: solubility): 2 to 3 mg/mL; solubility (Acetic acid 1% (glacial), 10 mg in Acetic acid 1% (glacial), read-out: 0.01 ml Very soluble (1 g/ml)): < 1000 mg/mL; solubility (Acetic acid 1% (glacial), 10 mg in Acetic acid 1% (glacial), read-out: 0.5 ml Soluble (0.02 g/ml; 20 mg/ml)): > 20 mg/mL; solubility (Acetic acid 1% (glacial), 10 mg in Acetic acid 1% (glacial), read-out: 1 ml Sparingly soluble (0.01 g/ml; 10 mg/ml)): > 10 mg/mL; solubility (Acetic acid 1% (glacial), 0.1 ml Freely soluble (0.1 g/ml), 10 mg in Acetic acid 1% (glacial)): > 100 mg/mL; solubility (Acetic acid 1% (glacial), 10 ml Slightly soluble (0.001 g/ml; 1 mg/ml), 10 mg in Acetic acid 1% (glacial)): > 1 mg/mL; solubility (Acetone (USP), 10 mg in Acetone (USP), read-out: 0.01 ml Very soluble (1 g/ml)): < 1000 mg/mL; solubility (Acetone (USP), 10 mg in Acetone (USP), read-out: 0.5 ml Soluble (0.02 g/ml; 20 mg/ml)): > 20 mg/mL; solubility (Acetone (USP), 10 mg in Acetone (USP), read-out: 1 ml Sparingly soluble (0.01 g/ml; 10 mg/ml)): > 10 mg/mL
